Results: ChEMBL document CHEMBL1153520, “A multivalent approach to the design and discovery of orally efficacious 5-HT4 receptor agonists” (J Med Chem, 2009)
Active and inactive are the calls of the source. No cut-off for these calls is given here.

Tests used:
[1] = AUC (0 to t) in Sprague-Dawley rat at 5 mg/kg, po; type: ADME, organism-based; set-up: dose 5 mg/kg, route oral; settings: plasma
[2] = biological target: T1, 5-hydroxytryptamine receptor 1A (Homo sapiens) (UniProt P08908); assay: Inhibition of 5HT1A receptor at 10 uM
T1 sequence (whole entry): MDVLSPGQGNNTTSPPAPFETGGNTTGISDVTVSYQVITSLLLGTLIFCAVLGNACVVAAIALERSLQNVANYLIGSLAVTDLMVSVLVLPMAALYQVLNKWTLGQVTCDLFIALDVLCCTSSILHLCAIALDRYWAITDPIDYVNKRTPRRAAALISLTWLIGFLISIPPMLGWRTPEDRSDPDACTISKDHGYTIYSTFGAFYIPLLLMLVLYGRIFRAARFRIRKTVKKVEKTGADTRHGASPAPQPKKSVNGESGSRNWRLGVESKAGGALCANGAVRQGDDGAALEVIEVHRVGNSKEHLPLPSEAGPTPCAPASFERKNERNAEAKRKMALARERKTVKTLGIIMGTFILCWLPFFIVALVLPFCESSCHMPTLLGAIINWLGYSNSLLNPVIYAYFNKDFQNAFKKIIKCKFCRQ

[3] = biological target: T2, 5-hydroxytryptamine receptor 4 (Homo sapiens, UniProt Q13639); assay: Intrinsic activity at human 5HT4C receptor expressed in HEK293 cells assessed as accumulation of cAMP by flash plate adenylyl cyclase activation assay relative to serotonin; type: functional, cell-based
T2 sequence (Q13639 whole entry): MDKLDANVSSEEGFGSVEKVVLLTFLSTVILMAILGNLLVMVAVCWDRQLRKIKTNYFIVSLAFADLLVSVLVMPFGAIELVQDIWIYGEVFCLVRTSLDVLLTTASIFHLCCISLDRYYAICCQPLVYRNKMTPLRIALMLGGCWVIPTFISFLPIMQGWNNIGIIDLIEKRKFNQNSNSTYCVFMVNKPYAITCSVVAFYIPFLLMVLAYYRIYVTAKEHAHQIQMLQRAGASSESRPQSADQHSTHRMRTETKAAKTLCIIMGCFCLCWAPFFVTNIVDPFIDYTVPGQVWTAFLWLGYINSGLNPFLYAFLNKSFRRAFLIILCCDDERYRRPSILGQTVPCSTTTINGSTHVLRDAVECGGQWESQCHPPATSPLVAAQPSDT

[4] = Oral bioavailability in Sprague-Dawley rat at 5 mg/kg, po; type: ADME, organism-based; settings: in vivo
hERG (KCNH2) = hERG (KCNH2) (Homo sapiens, UniProt Q12809); assay: Inhibition of human ERG potassium channel expressed in CHO-K1 cells at 3 uM by whole cell voltage clamp assay; type: cell-based; settings: CHO-K1 cells expressing human ERG potassium channel
hERG (KCNH2), sequence (Q12809 whole entry): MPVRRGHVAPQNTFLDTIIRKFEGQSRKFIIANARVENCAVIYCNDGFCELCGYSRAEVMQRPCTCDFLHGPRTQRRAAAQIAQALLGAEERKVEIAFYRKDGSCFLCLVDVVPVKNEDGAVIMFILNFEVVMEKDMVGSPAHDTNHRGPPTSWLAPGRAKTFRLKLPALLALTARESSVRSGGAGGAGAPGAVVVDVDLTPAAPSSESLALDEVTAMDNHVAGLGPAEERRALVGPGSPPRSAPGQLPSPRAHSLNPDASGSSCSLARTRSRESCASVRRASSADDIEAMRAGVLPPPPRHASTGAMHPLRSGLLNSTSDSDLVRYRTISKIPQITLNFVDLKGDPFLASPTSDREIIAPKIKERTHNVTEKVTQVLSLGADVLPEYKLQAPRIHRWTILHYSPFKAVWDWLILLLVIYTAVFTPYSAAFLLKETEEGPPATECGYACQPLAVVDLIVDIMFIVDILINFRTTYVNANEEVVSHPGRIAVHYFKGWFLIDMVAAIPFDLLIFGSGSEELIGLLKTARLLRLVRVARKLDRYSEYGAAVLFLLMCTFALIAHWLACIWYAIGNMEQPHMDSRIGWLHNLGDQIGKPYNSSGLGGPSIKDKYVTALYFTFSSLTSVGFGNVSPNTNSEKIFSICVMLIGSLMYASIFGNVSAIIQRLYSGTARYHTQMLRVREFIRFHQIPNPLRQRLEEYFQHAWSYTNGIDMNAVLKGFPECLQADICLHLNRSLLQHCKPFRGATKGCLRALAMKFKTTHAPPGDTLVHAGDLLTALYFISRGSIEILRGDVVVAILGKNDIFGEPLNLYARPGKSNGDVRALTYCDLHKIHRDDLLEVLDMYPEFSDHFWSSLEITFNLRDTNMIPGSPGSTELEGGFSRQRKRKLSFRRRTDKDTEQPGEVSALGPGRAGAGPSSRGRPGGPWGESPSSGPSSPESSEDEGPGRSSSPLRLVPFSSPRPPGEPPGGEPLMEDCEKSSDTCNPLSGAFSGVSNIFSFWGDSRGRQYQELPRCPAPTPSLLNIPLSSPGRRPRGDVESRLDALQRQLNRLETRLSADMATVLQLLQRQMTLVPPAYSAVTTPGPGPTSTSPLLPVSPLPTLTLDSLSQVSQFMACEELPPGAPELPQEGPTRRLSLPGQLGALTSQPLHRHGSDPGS

[5] = biological target: 5-hydroxytryptamine receptor 6 (Homo sapiens) (UniProt P50406); assay: Inhibition of 5HT6 receptor at 10 uM
5-hydroxytryptamine receptor 6 (Homo sapiens), sequence (P50406 whole entry): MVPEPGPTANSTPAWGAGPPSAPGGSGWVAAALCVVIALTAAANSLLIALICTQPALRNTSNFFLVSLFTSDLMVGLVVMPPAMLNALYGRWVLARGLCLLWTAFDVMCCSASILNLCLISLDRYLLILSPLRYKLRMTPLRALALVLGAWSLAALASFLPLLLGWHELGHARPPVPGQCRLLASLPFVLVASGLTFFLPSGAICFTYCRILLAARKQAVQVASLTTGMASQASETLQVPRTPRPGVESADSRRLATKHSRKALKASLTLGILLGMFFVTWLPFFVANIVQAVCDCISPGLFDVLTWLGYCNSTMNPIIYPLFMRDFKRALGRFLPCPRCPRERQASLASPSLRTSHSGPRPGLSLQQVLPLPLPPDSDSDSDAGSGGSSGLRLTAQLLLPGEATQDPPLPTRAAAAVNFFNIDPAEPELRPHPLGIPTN

[6] = biological target: 5-hydroxytryptamine receptor 7 (Homo sapiens) (UniProt P34969); assay: Inhibition of 5HT7 receptor at 10 uM
5-hydroxytryptamine receptor 7 (Homo sapiens), sequence (P34969 whole entry): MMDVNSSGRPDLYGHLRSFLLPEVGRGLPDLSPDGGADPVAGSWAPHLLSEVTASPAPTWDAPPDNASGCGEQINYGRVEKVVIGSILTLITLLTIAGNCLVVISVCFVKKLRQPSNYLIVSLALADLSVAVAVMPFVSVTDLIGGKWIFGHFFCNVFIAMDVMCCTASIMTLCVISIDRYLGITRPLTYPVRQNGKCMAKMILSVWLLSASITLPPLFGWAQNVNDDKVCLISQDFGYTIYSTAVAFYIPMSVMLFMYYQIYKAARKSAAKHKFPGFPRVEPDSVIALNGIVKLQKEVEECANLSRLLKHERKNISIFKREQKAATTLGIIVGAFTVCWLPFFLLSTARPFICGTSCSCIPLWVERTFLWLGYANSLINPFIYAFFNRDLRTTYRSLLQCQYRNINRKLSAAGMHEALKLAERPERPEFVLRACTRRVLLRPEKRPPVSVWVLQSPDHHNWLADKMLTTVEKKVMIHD

in vitro = settings: rat, liver microsomes
[7] = biological target: 5-hydroxytryptamine receptor 2B (Homo sapiens) (UniProt P41595); assay: Inhibition of 5HT2B receptor at 10 uM
5-hydroxytryptamine receptor 2B (Homo sapiens), sequence (P41595 whole entry): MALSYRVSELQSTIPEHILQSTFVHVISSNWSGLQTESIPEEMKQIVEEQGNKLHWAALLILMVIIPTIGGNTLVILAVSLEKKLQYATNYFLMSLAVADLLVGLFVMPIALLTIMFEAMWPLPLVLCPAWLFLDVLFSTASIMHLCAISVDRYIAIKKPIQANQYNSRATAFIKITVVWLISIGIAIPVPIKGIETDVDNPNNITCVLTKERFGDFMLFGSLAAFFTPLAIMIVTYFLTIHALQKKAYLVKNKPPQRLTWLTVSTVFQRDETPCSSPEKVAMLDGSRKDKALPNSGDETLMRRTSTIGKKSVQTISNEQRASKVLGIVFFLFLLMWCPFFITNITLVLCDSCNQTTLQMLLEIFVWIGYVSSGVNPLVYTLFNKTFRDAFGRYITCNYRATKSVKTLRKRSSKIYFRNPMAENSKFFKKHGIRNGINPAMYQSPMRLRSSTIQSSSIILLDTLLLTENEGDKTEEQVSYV

[8] = biological target: T2, 5-hydroxytryptamine receptor 4; assay: Displacement of [H]GR-113808 from human 5HT4C receptor expressed in HEK293 cells by liquid scintillation counting; type: cell-based
Cavia porcellus [9] = assay: Induction of colon longitudinal muscle contraction in sc dosed Duncan Hartley guinea pig; type: functional, organism-based; settings: Muscle tissue
Rattus norvegicus [10] = assay: Induction of 5HT4 receptor-mediated relaxation of esophagus in intraduodenal dosed anesthetized Sprague-Dawley rat by digital sonomicrometry; type: functional, organism-based
[11] = biological target: T3, 5-hydroxytryptamine receptor 2C (Homo sapiens) (UniProt P28335); assay: Inhibition of 5HT2C receptor at 10 uM
T3 sequence (whole entry): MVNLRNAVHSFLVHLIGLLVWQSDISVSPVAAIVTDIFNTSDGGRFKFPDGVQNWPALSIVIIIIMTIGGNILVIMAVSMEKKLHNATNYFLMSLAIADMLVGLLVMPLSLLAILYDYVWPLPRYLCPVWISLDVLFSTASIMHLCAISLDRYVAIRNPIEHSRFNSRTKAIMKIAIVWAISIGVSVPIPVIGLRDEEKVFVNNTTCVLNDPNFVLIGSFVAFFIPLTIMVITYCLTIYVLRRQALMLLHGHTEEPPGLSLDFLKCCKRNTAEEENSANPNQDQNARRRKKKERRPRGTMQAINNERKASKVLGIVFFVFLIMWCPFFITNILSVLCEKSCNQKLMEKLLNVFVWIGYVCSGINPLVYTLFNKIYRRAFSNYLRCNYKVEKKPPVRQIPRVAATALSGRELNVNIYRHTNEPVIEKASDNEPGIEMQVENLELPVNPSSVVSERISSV

Cavia porcellus [12] = assay: Increase in colonic transit in Duncan Hartley guinea pig colonic transit model assessed as prokinetic activity at 3 mg/kg, sc relative to vehicle treated control; type: functional, organism-based; set-up: dose 3 mg/kg
[13] = Permeability across human Caco-2 cells assessed as permeability coefficient; type: ADME, cell-based; settings: read-out: permeability
[14] = Oral bioavailability in Beagle dog at 2 mg/kg, po; type: ADME, organism-based, Canis lupus familiaris; settings: in vivo
Homo sapiens = species on record: Homo sapiens; assay: Selectivity ratio of Ki for human 5HT3A receptor to Ki for human 5HT4C receptor
[15] = biological target: 5-hydroxytryptamine receptor 5A (Homo sapiens) (UniProt P47898); assay: Inhibition of 5HT5A receptor at 10 uM
5-hydroxytryptamine receptor 5A (Homo sapiens), sequence (P47898 whole entry): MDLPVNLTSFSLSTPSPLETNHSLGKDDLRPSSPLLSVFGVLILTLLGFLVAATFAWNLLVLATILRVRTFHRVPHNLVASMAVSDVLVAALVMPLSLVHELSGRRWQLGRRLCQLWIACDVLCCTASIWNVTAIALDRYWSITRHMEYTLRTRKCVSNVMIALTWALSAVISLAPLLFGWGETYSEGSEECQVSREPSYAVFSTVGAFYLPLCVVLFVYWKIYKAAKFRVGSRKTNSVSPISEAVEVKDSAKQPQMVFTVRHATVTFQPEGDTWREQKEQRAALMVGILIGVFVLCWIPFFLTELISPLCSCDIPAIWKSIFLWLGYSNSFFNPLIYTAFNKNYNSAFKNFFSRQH

[16] = biological target: T3, 5-hydroxytryptamine receptor 2C (Homo sapiens); assay: Inhibition of 5HT1C receptor at 10 uM
[17] = Cmax in Sprague-Dawley rat at 5 mg/kg, po; type: ADME, organism-based; set-up: dose 5 mg/kg, route oral; settings: in vivo
[18] = biological target: 5-hydroxytryptamine receptor 1D (Homo sapiens) (UniProt P28221); assay: Inhibition of 5HT1D receptor at 10 uM
5-hydroxytryptamine receptor 1D (Homo sapiens), sequence (P28221 whole entry): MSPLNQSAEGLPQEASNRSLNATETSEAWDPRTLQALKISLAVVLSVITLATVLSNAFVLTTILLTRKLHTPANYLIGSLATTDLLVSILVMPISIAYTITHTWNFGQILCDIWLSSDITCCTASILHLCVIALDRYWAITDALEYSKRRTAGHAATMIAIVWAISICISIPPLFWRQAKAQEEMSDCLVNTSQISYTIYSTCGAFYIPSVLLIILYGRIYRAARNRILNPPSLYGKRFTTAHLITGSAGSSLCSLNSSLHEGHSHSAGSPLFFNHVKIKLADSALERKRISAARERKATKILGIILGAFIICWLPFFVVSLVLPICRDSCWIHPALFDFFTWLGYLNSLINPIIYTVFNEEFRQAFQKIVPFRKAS

[19] = biological target: T2, 5-hydroxytryptamine receptor 4; assay: Agonist activity at human 5HT4C receptor expressed in HEK293 cells assessed as accumulation of cAMP by flash plate adenylyl cyclase activation assay; type: functional, cell-based
Rattus norvegicus [20] = assay: Induction of 5HT4 receptor-mediated relaxation of esophagus in anesthetized Sprague-Dawley rat at 3 mg/kg, intraduodenally by digital sonomicrometry; type: functional, organism-based; set-up: dose 3 mg/kg
Rattus norvegicus [21] = assay: Induction of 5HT4 receptor-mediated relaxation of esophagus in iv dosed anesthetized Sprague-Dawley rat by digital sonomicrometry; type: functional
[22] = biological target: 5-hydroxytryptamine receptor 2A (Homo sapiens) (UniProt P28223); assay: Inhibition of 5HT2A receptor at 10 uM
5-hydroxytryptamine receptor 2A (Homo sapiens), sequence (P28223 whole entry): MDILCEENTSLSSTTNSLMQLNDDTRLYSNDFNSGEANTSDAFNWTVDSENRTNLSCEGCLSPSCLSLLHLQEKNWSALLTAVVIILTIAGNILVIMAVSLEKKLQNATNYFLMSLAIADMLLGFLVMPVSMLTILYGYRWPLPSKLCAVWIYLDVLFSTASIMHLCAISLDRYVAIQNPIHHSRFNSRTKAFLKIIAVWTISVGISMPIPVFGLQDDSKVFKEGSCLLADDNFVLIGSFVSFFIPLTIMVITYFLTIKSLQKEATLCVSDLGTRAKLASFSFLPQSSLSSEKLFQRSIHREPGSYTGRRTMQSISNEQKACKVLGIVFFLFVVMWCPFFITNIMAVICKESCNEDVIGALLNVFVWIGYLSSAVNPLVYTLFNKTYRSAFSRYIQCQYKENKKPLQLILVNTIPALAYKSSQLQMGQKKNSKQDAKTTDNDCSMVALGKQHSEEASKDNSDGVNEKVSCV

[23] = Cmax in Beagle dog at 2 mg/kg, po; type: ADME, organism-based, Canis lupus familiaris; set-up: dose 2 mg/kg, route oral; settings: in vivo
[24] = Half life in Sprague-Dawley rat at 5 mg/kg, po; type: ADME, organism-based; set-up: dose 5 mg/kg, route oral; settings: in vivo

CC(C)n1c(=O)c(C(=O)N[C@H]2C[C@H]3CC[C@@H](C2)N3C[C@@H](O)CN2CCN(S(C)(=O)=O)CC2)cc2ccccc21
AUC(0-t) [1]: 200 ng·h/mL | inhibition [2]: < 50% | Intrinsic activity [3]: 94% | bioavailability [4]: 20% | inhibition at 3 µM (hERG (KCNH2)): 4% | inhibition [5]: < 50% | inhibition [6]: < 50% | half-life (in vitro): > 1.5 h | inhibition [7]: < 50% | Ki [8]: 12.6 nM | EC50 (Cavia porcellus [9]): 2.51 nM | Activity (Rattus norvegicus [10]): Dose-dependent effect | inhibition [11]: < 50% | Activity (Cavia porcellus [12]): Active | Papp [13]: 14 ×10⁻⁶ cm/s | bioavailability [14]: 63% | Ratio Ki (Homo sapiens): 7400 | inhibition [15]: < 50% | inhibition [16]: < 50% | Cmax [17]: 31 ng/mL | inhibition [18]: < 50% | EC50 [19]: 0.398 nM | Activity (Rattus norvegicus [20]): Active | Activity (Rattus norvegicus [21]): Dose-dependent effect | ED50 (Rattus norvegicus [21]): 0.016 mg/kg | inhibition [22]: < 50% | Cmax [23]: 320 ng/mL | half-life [24]: 5.2 h
